The experiment relates to MM1S tumours. Description: MM1S xenograft mouse model. It counts as in vivo, CB17 SCID mice.

Procedure: A CB17 SCID mice (n=7 each group) with palpable MM1S tumour implants were randomized and treated with control vehicle, a single dose of M2 (0.4 mg/kg), six doses of btz (0.4 mg/kg), or combination of M2 and btz (M2+btz) for 2 weeks. […] D Tumour tissue sections from each group were immunohistochemically analyzed for Ki-67 (original magnification, ×400). […] Tumours were removed at the same treatment day from representative mice.
CB-17 SCID-mice were subcutaneously inoculated with 5.0×106 MM.1S cells in 100 μl of serum-free RPMI 1640 medium. When tumours were measurable approximately 3 weeks after MM-cell injection, mice (8 mice/group) were randomized and treated with vehicle alone, M2, btz, or M2 with btz. Tumour size was measured every third day in 2 dimensions using calipers, and tumour volume was calculated using the following formula: V=0.5a×b2, where “a” and “b” are the long and short diameter of the tumour, respectively. Animals were sacrificed when their tumours reached 2 cm^3.
Following 3d-treatment, tumour from each group was harvested and cell lysates were made for immunoblotting. […] Immunohistochemical images were taken on Zeiss Inverted Fluorescence Microscope for Ki67. […]
In vivo efficacy of sub-optimal doses M2 with btz was next evaluated in the MM1S xenograft mouse model. […]

With `CC(C)C[C@H](NC(=O)[C@H](Cc1ccccc1)NC(=O)c1cnccn1)B(O)O` [btz, Bortezomib], the MM1S tumour growth result (24d after treatment, single dose M2, 6 doses btz (0.4 mg/kg)) is reported as “significantly delays”. Further, under “Kaplan-Meier, follow-up 177 d”, the median overall survival was 35 days.
